Patent US20070207987A1, “Androgen Modulators” (WARNER-LAMBERT COMPANY LLC, priority 2004, published 2007)
Where two headings read alike, the source gives them in different places.

Tests used:
hAR = target: T1, hAR (Homo sapiens, UniProt P10275); assay: Competitive binding of 3H-DHT to hAR extracts; details: baculovirus/Sf9 hAR extract, 1 nM 3H-DHT, one hour at 4° C., mean of multiple tests
T1 construct: made in house; host or cells: baculovirus/Sf9 insect cells
T1 sequence (P10275 1-920): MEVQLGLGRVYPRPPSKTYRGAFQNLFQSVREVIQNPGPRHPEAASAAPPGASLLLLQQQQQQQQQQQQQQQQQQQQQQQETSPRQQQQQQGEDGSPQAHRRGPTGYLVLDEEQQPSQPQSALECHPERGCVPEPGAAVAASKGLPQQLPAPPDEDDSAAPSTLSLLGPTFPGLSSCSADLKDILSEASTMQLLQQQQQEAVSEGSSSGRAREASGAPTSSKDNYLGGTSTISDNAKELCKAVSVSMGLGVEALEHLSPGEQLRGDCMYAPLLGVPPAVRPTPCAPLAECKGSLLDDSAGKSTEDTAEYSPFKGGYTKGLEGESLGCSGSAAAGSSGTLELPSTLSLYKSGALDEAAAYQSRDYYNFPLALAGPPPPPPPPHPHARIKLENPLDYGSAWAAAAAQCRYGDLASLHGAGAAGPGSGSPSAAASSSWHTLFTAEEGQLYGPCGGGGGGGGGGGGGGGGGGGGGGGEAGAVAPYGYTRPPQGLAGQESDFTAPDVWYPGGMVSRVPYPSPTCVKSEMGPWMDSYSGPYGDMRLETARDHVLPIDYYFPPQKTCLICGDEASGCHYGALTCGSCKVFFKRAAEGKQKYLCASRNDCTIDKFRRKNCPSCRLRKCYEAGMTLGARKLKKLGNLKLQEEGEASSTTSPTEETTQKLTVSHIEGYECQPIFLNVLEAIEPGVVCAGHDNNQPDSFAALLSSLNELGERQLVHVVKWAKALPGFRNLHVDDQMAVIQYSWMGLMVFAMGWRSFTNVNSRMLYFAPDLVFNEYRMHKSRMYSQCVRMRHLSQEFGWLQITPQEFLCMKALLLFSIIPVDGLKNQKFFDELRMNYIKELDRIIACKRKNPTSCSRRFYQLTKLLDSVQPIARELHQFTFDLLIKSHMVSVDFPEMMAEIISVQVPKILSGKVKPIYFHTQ
Method: The compounds of Formula I have affinity for the androgen receptor. […] The description below describes how the assay was carried out.
Competitive binding analysis was performed on baculovirus/Sf9 generated hAR extracts in the presence or absence of different concentrations of test agent and a fixed concentration of ^3H-dihydrotestosterone (^3H-DHT) as tracer. This binding assay method is a modification of a protocol previously described (Liao S., et. al. J. Steroid Biochem. 20:11-17 1984). Briefly, progressively decreasing concentrations of compounds are incubated in the presence of hAR extract (Chang et al. P.N.A.S. Vol. 89, pp. […], 1992), hydroxylapatite, and 1 nM ^3H-DHT for one hour at 4° C. Subsequently, the binding reactions are washed three times to completely remove excess unbound ^3H-DHT. hAR bound ^3H-DHT levels are determined in the presence of compounds (i.e. competitive binding) and compared to levels bound when no competitor is present (i.e. maximum binding). Compound binding affinity to the hAR is expressed as the concentration of compound at which one half of the maximum binding is inhibited. Table I below provides the results that were obtained for selected compounds (reported data is the mean of multiple tests as shown below)

androgen receptor = androgen receptor (Homo sapiens, UniProt P10275); assay: AR antagonist cell assay (MMTV-luciferase reporter, MDA-MB453-MMTV clone 54-19); format: cell-based
Method: The compounds ability to antagonize the effects of androgen on the androgen receptor were determined in a whole cell assay as described immediately below.
Experimental Procedure for AR Antagonist Cell Assay
This cell line is a stable transfected cell line with MDA-MB453 cell background (a human breast tumor cell line expressing androgen receptor). A MMTV minimal promoter containing ARE was first cloned in front of a firefly luciferase reporter gene. Then the cascade was cloned into transfection vector pUV120puro. Electroporation method was used for transfecting MDA-MB-453 cell. Puromycin resistant stable cell line was selected.
Cell Culture Media and Reagents:
Culture medium: DMEM (high glucose, Gibco cat #: 11960-044), 10% FBS, and 1% L-glutamine
Plating medium: DMEM (phenol red free), 10% charcoal treated HyClone serum, 1% L-glutamine
Assay medium: DMEM (phenol red free), 1% charcoal treated HyClone serum, 1% L-glutamine, and 1% penicillin/streptomycin
3× luciferase buffer: 2% beta-mercaptoethanol, 0.6% ATP, 0.0135% luciferine in cell lysis buffer
• 1. Cells are maintained in culture medium, splitting cells when they reach 80-90% confluence • 2. To test compounds, 10,000 cells/well are plated to opaque 96 cell culture plate in 100 ul/well plating medium, culture for overnight at 37° C. in cell culture incubator • 3. Carefully remove plating medium, then add 80 ul/well of pre-warmed assay medium, add 10 ul/well testing compound (final concentration at) 1000 nM, 200 nM, 40 nM, 8 nM, 1.6 nM, and 0.32 nM), incubate at 37° C. for 30 minutes • 4. Add 10 ul/well freshly prepared DHT (final concentration at 100 pM) to each well, incubate at 37° C. for 17 hr (overnight) • 5.
The results are reported as the mean of multiple tests as described below (the numbers of tests are indicated in the footnote). N.D. denotes that the compound was not tested.

male Syrian hamsters = assay: Animal model for inhibition of sebum production (hamster ear); format: in vivo, Syrian hamster; details: five days a week, 4 weeks; for % CE reduction / % WE reduction: vs vehicle control
Method: Luderschmidt et al. describes an animal model for testing whether compounds are capable of modulating sebum secretion. Arch. Derm. Res. 258, 185-191 (1977). This model uses male Syrian hamsters, whose ears contain sebaceous glands. The products of Examples 1 and 2 were screened in this model.
Testing for sebum inhibition was carried out in the following manner. Male Syrian hamsters aged 9 to 10 weeks were introduced into the laboratory environment and acclimated for 2 weeks prior to use in the study. Each group consisted of 5 animals and run in parallel with vehicle and positive controls. Prior to administration, a sufficient quantity each compound was dissolved in 1 mL of a solvent consisting of transcutol, propylene glycol, and ethanol (2/2/6 v/v/v) to achieve the final concentration described in Table III.
Animals were dosed topically twice daily, five days a week, for 4 weeks. Each dose consisted of 25 micro liters of vehicle control or drug. The dose was applied to the ventral surfaces of both the right and left ears. All animals were sacrificed approximately 18-24 hours after the final dose. The right ears were collected from each animal and used for sebum analysis.
The ears were prepped for HPLC analysis in the following manner. One 8 mm distal biopsy punch was taken, just above the anatomical “V” mark in the ear to normalize the sample area. The punch was pulled apart. The ventral biopsy surface (the area where the topical dose was directly applied to the sebaceous glands) was retained for testing and the dorsal surface of the biopsy punch was discarded.
Tissue samples were blown with N2 gas and stored at −80° C. under nitrogen until HPLC analysis. In addition to ear samples, an aliquot of each drug and vehicle (at least 250 ul) was also stored at −80° C. for inclusion in the HPLC analysis.
HPLC analysis was carried out on an extract of the tissue sample. Tissue samples were contacted with 3 ml of solvent (a 4:1 admixture of 2,2,4-trimethylpentane and isopropyl alcohol). The mixture was shaken for 15 minutes and stored overnight at room temperature, protected from light. The next morning 1 milliliter of water was added to the sample and shaken for 15 minutes. The sample was then centrifuged at approximately 1500 rpm for 15 minutes. Two ml of the organic phase (top layer) was transferred to a glass vial, dried at 37° C., under nitrogen, for approximately 1 hour, and then lyophilized for approximately 48 hours. The samples were then removed from the lyophilizer and each vial was reconstituted with 600 μl of solvent A (trimethylpentane/tetrahydrofuran (99:1). The samples were then recapped and vortexed for 5 minutes.
200 μl of each sample was then transferred to a pre-labeled 200 μl HPLC vial with 200 μL glass inserts. The HPLC vials were placed in the autosampler tray for the Agilent 1100 series HPLC unit. The Agilent 1100 HPLC system consisted of a thermostated autosampler, a quarternary pump, a column heater, and an A/D interface module. All components were controlled by Agilent ChemStation software. A Waters Spherisorb S3W 4.6×100 mm analytical column was maintained at 30° C. by the Agilent column heater unit. The HPLC autosampler was programmed to maintain the sample temperature at 20 C. throughout the run.
10 uL of each sample was injected in triplicate into the column. Two solvents were used for the solvent gradient. Solvent A was an admixture of trimethylpentane and tetrahydrofuran (99:1). Solvent B was ethylacetate. The gradient utilized is described in the table below: […]
The Sedex 75 Evaporative Light Scattering Detector (ELSD) was operated at 45° C. with a gain of 5, and N2 pressure maintained at 3.1 bar. Analog signal obtained by the instrument was sent to the Agilent A/D interface module where it was converted to a digital output. The conversion was based on a 10000 mAU/volt set point and the data rate was set at 10 Hz (0.03 min). […]

patients = details: after 7 years of treatment; cited from earlier work

| SMILES | IC50 (hAR; ARB (IC50)) | melting point | IC50 (hAR; read-out: ARB (IC50)) | further results |
| --- | --- | --- | --- | --- |
| CC1(C)COC(=O)[C@@H]1Oc1ccc(C#N)c(C(F)(F)F)c1 [Example 2, (R)-(+)-4-(4,4-Dimethyl-2-oxo-tetrahydro-furan-3-yloxy)-2-trifluoromethyl-benzonitrile] | 71 nM | 89.9 to 90.7 °C |  | IC50 (androgen receptor): 47 nM; Sum of WE & WE (male Syrian hamsters; 3% w/v topical twice daily): 171; % CE reduction (male Syrian hamsters; 3% w/v topical twice daily): 79%; % WE reduction (male Syrian hamsters; 3% w/v topical twice daily): 92% |
| CC1(C)COC(=O)C1Oc1ccc(C#N)c(C(F)(F)F)c1 (racemic) [Example 1, (±)-4-(4,4-Dimethyl-2-oxo-tetrahydro-furan-3-yloxy)-2-trifluoromethyl-benzonitrile)] | 122 nM |  |  | IC50 (androgen receptor): 60 nM; Sum of WE & WE (male Syrian hamsters; 1% w/v topical twice daily): 128; % CE reduction (male Syrian hamsters; 1% w/v topical twice daily): 55%; % WE reduction (male Syrian hamsters; 1% w/v topical twice daily): 73% |
| NCCCC(O)(P(=O)(O)O)P(=O)(O)O [alendronate] |  |  |  | Increase in spinal BMD (patients): ≤ 11% |
| N#Cc1ccc(OC2CCOC2=O)cc1C(F)(F)F (racemic) [Example 4, (±)-4-(2-Oxo-tetrahydro-furan-3-yloxy)-2-trifluoromethyl-benzonitrile] |  | 120 °C | 5850 nM |  |
| CC1(C)COC(=O)[C@H]1Oc1ccc(C#N)c(C(F)(F)F)c1 [Example 3, (S)-(−)-4-(4,4-Dimethyl-2-oxo-tetrahydro-furan-3-yloxy)-2-trifluoromethyl-benzonitrile] | > 10000 nM | 83.1 to 84.4 °C |  | IC50 (androgen receptor; inhibition of induction by 100 pM DHT, 17 hr, mean of multiple tests, read-out: ARCell (IC50)): > 1000 nM |
| N#Cc1ccc(OC2CCOC2=O)cc1C(F)(F)F (single isomer, unassigned; (+)) [Example 5, (+)-4-(2-Oxo-tetrahydro-furan-3-yloxy)-2-trifluoromethyl-benzonitrile] |  | 107 to 108 °C | 9800 nM |  |
| N#Cc1ccc(OC2CCOC2=O)cc1C(F)(F)F (single isomer, unassigned; (-)) [Example 6, (−)-4-(2-Oxo-tetrahydro-furan-3-yloxy)-2-trifluoromethyl-benzonitrile] |  |  | 1670 nM |  |
